Measurements: patent US4897254A, “Radioactive compositions for the treatment of calcific tumors” (priority 1987, dated 1990)

Key:
[1] = two-hour rat biodistribution after tail vein injection (NaI scintillation counting of dissected tissues); settings: in vivo
Source text: Quantitative biodistributions were obtained by injecting 50-100 microliters of the composition into the tail vein of unanesthetized male Sprague Dawley rats. The rats were then placed in cages lined with absorbent paper in order to collect all urine excreted prior to sacrifice. After a given period of time, the rats were sacrificed by cervical dislocation and the various tissues dissected. The samples were then rinsed with saline, blotted dry on absorbent paper and weighed.

[2] = cited from earlier work
[3] = radionuclide; cited from earlier work
[4] = patients with metastatic bone lesions

Sm-153-diethylenetriaminepentaacetic acid [Sm-153-DTPA]
skeletal uptake (in words) [1]: low skeletal uptake

Sm-153-nitrilotriacetic acid [Sm-153-NTA]
liver uptake (in words) [1]: high liver uptake

NC(c1ccc(O)c([131I])c1)(P(=O)(O)O)P(=O)(O)O [α-amino-(3-iodo-4-hydroxybenzylidene)diphosphonate]
possible metabolite ([2]; in vivo): iodide as one of the possible metabolites

Strontium-89
blood levels [2, 4]: high blood levels
lesion to normal bone ratios [2, 4]: low lesion to normal bone ratios
half-life [3]: 50.4 days
